In the series the test system is Zucker Diabetic Fatty rat (ZDF). Nature of the series: In vivo preventive study of renal function in the Zucker Diabetic Fatty rat model of diabetic nephropathy. An excerpt:
The compound 1,3 Propanedisulfonic Acid Disodium Salt (PDS) was selected for a preventive study of renal function in the Zucker rat (ZDF) mode.
A leading study model for DN is the inbred Zucker Diabetic Fatty rat (ZDF). Given a diabetogenic diet, the ZDF rat will closely mimic human adult onset diabetes (Type 2) and related complications including glomerulosclerosis and renal damage earlier than when fed a normal diet (i.e. 14-18 weeks of age). In addition, obesity, mild hypertension, hypertriglyceridemia, hypercholesterolemia, fasting hyperglycemia, impaired glucose tolerance and hyperinsulinemia, are all major phenotypes featured in the ZDF rat.
This pre-clinical investigation evaluates the role and efficacy of 1,3 Propanedisulfonic Acid Disodium Salt (PDS) (Eprodisate Disodium) as a preventive treatment for DN and related pathophysiology in the ZDF rat model. The primary measured outcome is the attenuation/reversal of creatinine clearance deterioration and of proteinuria. The secondary measured outcome is the impact on the metabolic status in this model.
Thirty-two, 6 week-old male ZDF rats (Charles River, St. Constant, Canada) were randomized in 2 groups, Treated (PDS; in 1% sucrose drinking solution) and Control (1% sucrose drinking solution), and studied for a period of 8 weeks. […] All rats were fed a high sucrose/high fat diabetogenic diet (Harlan™ TD95217). Body weight, food and drinking solution consumption were measured on a daily basis. Twelve rats from each group were individually housed in metabolic cages for a period of 24 hours once a week. During week 2, 3, 4 and 5, rats placed in metabolic cages received drinking solution but were placed in fasting condition, whereas during weeks 1, […], 6, 7, and 8, rats were given ad libitum access to food and drinking solution. At the end of each metabolic cage session, urine output was measured, and blood and urine samples were collected in order to quantify serum and/or urine levels of PDS, creatinine, protein, uric acid, triglycerides, glucose, and electrolytes. These variables were used to calculate creatinine clearance (CCr) and proteinuria, and to evaluate general metabolic and renal health status.
Results for each time point are represented as mean±SE. Trend statistics are calculated by repeated measures ANOVA, with p<0.02 considered statistically significant.

The mark [1] stands for this setting: preliminary evaluation, rats sacrificed at about 9 weeks of treatment, not shown.

Regarding `O=S(=O)([O-])CCCS(=O)(=O)[O-].[Na+].[Na+]` [PDS, 1,3 Propanedisulfonic Acid Disodium Salt], the “uric acid serum levels” value (ZDF rats, summary statement of the study) is “reduction of uric acid serum levels”. For the same compound, the tolerability result (male ZDF rats, PDS in 1% sucrose drinking solution, adjusted higher dose, satient condition) is reported as “well tolerated”. Besides, the “serum triglyceride levels versus Control animals” value (male ZDF rats, satient condition, after 8 weeks of treatment, p=0.0067, FIGS. 3A and 3B) is reported as “reduced serum triglyceride levels”. Moreover, where the note is “male ZDF rats, satient condition, after 8 weeks of treatment, p=0.012, FIGS. 2A and 2B”, the “degree of decline of creatinine clearance normalized over body weight (CCr/BW) versus Control animals” value was “significantly lowered the degree of decline”. Under “male ZDF rats, satient condition, over 8 weeks, FIG. 4A”, the “uric acid clearance, effect of treatment over the study” value is “trend in the positive effect”. For the same compound, where the note is “male ZDF rats, satient condition, week 8, FIG. 4B”, the “uric acid clearance compared to the control group at week 8” value is on record as “significant difference compared to the control group”. Under setting [1], the “kidney mass versus control rats” value is given as “greater kidney mass than control rats” and the “mass of the heart ventricles versus control rats” value is listed as “slightly lower ventricular mass”.

Source of the values: patent US8372886B2, “Treatment of renal disorders, diabetic nephropathy and dyslipidemias” (Kiacta Sarl, priority 2005, dated 2013).
